Measurements published in PMC8699473, “An Easily Expandable Multi-Drug LC-MS Assay for the Simultaneous Quantification of 57 Oral Antitumor Drugs in Human Plasma” (Cancers, 2021).

Assay: Long-term stability in spiked pooled human plasma

Row | SMILES | Long-term stability, 1 month, -20°C Accuracy [%] (validation standard 2xLLOV) | Long-term stability, 1 month, -80°C Accuracy [%] (validation standard 2xLLOV) | Long-term stability, 2 month, -20°C Accuracy [%] (validation standard 2xLLOV) | Long-term stability, 2 month, -80°C Accuracy [%] (validation standard 2xLLOV) | Long-term stability, 3 month, -20°C Accuracy [%] (validation standard 2xLLOV) | Long-term stability, 3 month, -80°C Accuracy [%] (validation standard 2xLLOV) | Long-term stability, 6 weeks, 4°C, without daylight Accuracy [%] (validation standard 2xLLOV) | Long-term stability, 1 month, -20°C Accuracy [%] (validation standard LLOV) | Long-term stability, 1 month, -80°C Accuracy [%] (validation standard LLOV) | Long-term stability, 2 month, -20°C Accuracy [%] (validation standard LLOV) | Long-term stability, 2 month, -80°C Accuracy [%] (validation standard LLOV) | Long-term stability, 3 month, -20°C Accuracy [%] (validation standard LLOV) | Long-term stability, 3 month, -80°C Accuracy [%] (validation standard LLOV) | Long-term stability, 1 month, -20°C Accuracy [%] (validation standard MOV) | Long-term stability, 1 month, -80°C Accuracy [%] (validation standard MOV) | Long-term stability, 2 month, -20°C Accuracy [%] (validation standard MOV) | Long-term stability, 2 month, -80°C Accuracy [%] (validation standard MOV) | Long-term stability, 3 month, -20°C Accuracy [%] (validation standard MOV) | Long-term stability, 3 month, -80°C Accuracy [%] (validation standard MOV) | Long-term stability, 6 weeks, 4°C, without daylight Accuracy [%] (validation standard MOV) | other results
1 | COc1cc2ncnc(Nc3ccc(F)c(Cl)c3)c2cc1OCCCN1CCOCC1 [Gefitinib] | 99.2 | 94.2 | 105.6 | 108.5 | 103.9 | 101.3 | 89.3 | 95.8 | 89.0 | 101.3 | 102.7 | 100.2 | 99.5 | 100.7 | 99.3 | 105.1 | 104.1 | 102.7 | 99.9 | 105.7 | Long-term stability, 6 weeks, 4°C, without daylight Accuracy [%] (validation standard LLOV): 78.5%; Long-term stability, 1 month, -20°C Accuracy [%] (validation standard ULOV): 98.5%; Long-term stability, 1 month, -80°C Accuracy [%] (validation standard ULOV): 93.5%; Long-term stability, 2 month, -20°C Accuracy [%] (validation standard ULOV): 99.2%; Long-term stability, 2 month, -80°C Accuracy [%] (validation standard ULOV): 101.3%; Long-term stability, 3 month, -20°C Accuracy [%] (validation standard ULOV): 99.2%; Long-term stability, 3 month, -80°C Accuracy [%] (validation standard ULOV): 99.2%; Long-term stability, 6 weeks, 4°C, without daylight Accuracy [%] (validation standard ULOV): 97.6%
2 | Cc1ccc(NC(=O)c2ccc(CN3CCN(C)CC3)cc2)cc1Nc1nccc(-c2cccnc2)n1 [Imatinib] | 97.8 | 96.3 | 104.1 | 112.9 | 64.1 | 72.7 | 103.4 | 88.0 | 77.3 | 95.6 | 103.3 | 19.7 | 18.2 | 87.1 | 84.4 | 99.4 | 96.4 | 90.0 | 90.1 | 95.4 | Long-term stability, 6 weeks, 4°C, without daylight Accuracy [%] (validation standard LLOV): 86.4%; Long-term stability, 1 month, -20°C Accuracy [%] (validation standard ULOV): 87.9%; Long-term stability, 1 month, -80°C Accuracy [%] (validation standard ULOV): 79.8%; Long-term stability, 2 month, -20°C Accuracy [%] (validation standard ULOV): 91.0%; Long-term stability, 2 month, -80°C Accuracy [%] (validation standard ULOV): 89.1%; Long-term stability, 3 month, -20°C Accuracy [%] (validation standard ULOV): 89.6%; Long-term stability, 3 month, -80°C Accuracy [%] (validation standard ULOV): 89.4%; Long-term stability, 6 weeks, 4°C, without daylight Accuracy [%] (validation standard ULOV): 89.8%
3 | CS(=O)(=O)CCNCc1ccc(-c2ccc3ncnc(Nc4ccc(OCc5cccc(F)c5)c(Cl)c4)c3c2)o1 [Lapatinib] | 91.4 | 92.2 | 84.4 | 102.3 | 72.0 | 96.3 | 34.8 | 85.5 | 91.6 | 80.7 | 98.5 | 55.4 | 95.3 | 95.3 | 97.6 | 93.7 | 103.0 | 78.1 | 101.0 | 101.1 | Long-term stability, 6 weeks, 4°C, without daylight Accuracy [%] (validation standard LLOV): 28.2%; Long-term stability, 1 month, -20°C Accuracy [%] (validation standard ULOV): 96.6%; Long-term stability, 1 month, -80°C Accuracy [%] (validation standard ULOV): 94.5%; Long-term stability, 2 month, -20°C Accuracy [%] (validation standard ULOV): 101.5%; Long-term stability, 2 month, -80°C Accuracy [%] (validation standard ULOV): 100.9%; Long-term stability, 3 month, -20°C Accuracy [%] (validation standard ULOV): 95.4%; Long-term stability, 3 month, -80°C Accuracy [%] (validation standard ULOV): 96.7%; Long-term stability, 6 weeks, 4°C, without daylight Accuracy [%] (validation standard ULOV): 99.9%
4 | Nc1cccc2c1CN(C1CCC(=O)NC1=O)C2=O (centres unmarked) [Lenalidomide] | 112.2 | 103.2 | 97.9 | 104.0 | 99.5 | 104.1 | 15.8 | 104.5 | 96.6 | 52.8 | 56.2 | 69.1 | 82.4 | 93.9 | 93.9 | 101.8 | 104.0 | 92.9 | 96.0 | 19.7 | Long-term stability, 1 month, -20°C Accuracy [%] (validation standard ULOV): 92.6%; Long-term stability, 1 month, -80°C Accuracy [%] (validation standard ULOV): 88.5%; Long-term stability, 2 month, -20°C Accuracy [%] (validation standard ULOV): 95.8%; Long-term stability, 2 month, -80°C Accuracy [%] (validation standard ULOV): 98.8%; Long-term stability, 3 month, -20°C Accuracy [%] (validation standard ULOV): 89.8%; Long-term stability, 3 month, -80°C Accuracy [%] (validation standard ULOV): 94.4%; Long-term stability, 6 weeks, 4°C, without daylight Accuracy [%] (validation standard ULOV): 16.2%
5 | COc1cc2nccc(Oc3ccc(NC(=O)NC4CC4)c(Cl)c3)c2cc1C(N)=O [Lenvatinib] | 99.7 | 94.9 | 97.0 | 100.9 | 103.0 | 104.8 | 105.2 | 109.4 | 107.0 | 102.7 | 108.7 | 105.7 | 110.3 | 95.8 | 94.5 | 98.2 | 97.2 | 99.7 | 100.5 | 107.3 | Long-term stability, 6 weeks, 4°C, without daylight Accuracy [%] (validation standard LLOV): 127.4%; Long-term stability, 1 month, -20°C Accuracy [%] (validation standard ULOV): 96.4%; Long-term stability, 1 month, -80°C Accuracy [%] (validation standard ULOV): 94.7%; Long-term stability, 2 month, -20°C Accuracy [%] (validation standard ULOV): 101.7%; Long-term stability, 2 month, -80°C Accuracy [%] (validation standard ULOV): 101.9%; Long-term stability, 3 month, -20°C Accuracy [%] (validation standard ULOV): 98.3%; Long-term stability, 3 month, -80°C Accuracy [%] (validation standard ULOV): 100.8%; Long-term stability, 6 weeks, 4°C, without daylight Accuracy [%] (validation standard ULOV): 101.9%
6 | C[C@H]1Oc2cc(cnc2N)-c2c(nn(C)c2C#N)CN(C)C(=O)c2ccc(F)cc21 [Lorlatinib] | 89.2 | 84.9 | 91.9 | 91.9 | 91.7 | 90.8 | 96.7 | 87.9 | 82.6 | 90.0 | 87.6 | 95.7 | 93.2 | 88.5 | 87.8 | 93.9 | 91.2 | 90.9 | 89.2 | 93.7 | Long-term stability, 6 weeks, 4°C, without daylight Accuracy [%] (validation standard LLOV): 97.1%; Long-term stability, 1 month, -20°C Accuracy [%] (validation standard ULOV): 90.6%; Long-term stability, 1 month, -80°C Accuracy [%] (validation standard ULOV): 87.4%; Long-term stability, 2 month, -20°C Accuracy [%] (validation standard ULOV): 91.4%; Long-term stability, 2 month, -80°C Accuracy [%] (validation standard ULOV): 91.7%; Long-term stability, 3 month, -20°C Accuracy [%] (validation standard ULOV): 91.0%; Long-term stability, 3 month, -80°C Accuracy [%] (validation standard ULOV): 89.2%; Long-term stability, 6 weeks, 4°C, without daylight Accuracy [%] (validation standard ULOV): 91.4%
